Experimental data reported in patent US10576076B2 (priority 2015, dated 2020).

Columns and labels:
[1] = tested on: PI3K/mTOR; settings: relatively higher concentrations; cited from earlier work
[2] = molecular target: mTOR (Homo sapiens, UniProt P42345); settings: low concentration; cited from earlier work
[3] = tested on: influenza vaccine strains; test: Clinical study in elderly volunteers: response to influenza vaccination after 6 weeks of mTOR inhibitor dosing; format: in vivo, human; settings: 4 weeks after vaccination, 2 week drug-free break
Method: In a clinical study elderly volunteers were treated for 6 weeks daily with one of four mTOR inhibitor dosing regimens: 0.5 mg/day RAD001, 0.1 mg/day RAD001, 10 mg/day BEZ235 or 0.1 mg/day RAD001+10 mg/day BEZ235.
After being dosed for 6 weeks, the elderly volunteers were given a 2 week drug-free break and then received influenza vaccination. […] All dosing regimens were relatively well tolerated. […] However the majority of these adverse events were of mild severity, transient and resolved despite continued dosing of mTOR inhibitors.

SMILES: Cn1c(=O)n(-c2ccc(C(C)(C)C#N)cc2)c2c3cc(-c4cnc5ccccc5c4)ccc3ncc21 [BEZ235, 2-methyl-2-[4-(3-methyl-2-oxo-8-quinolin-3-yl-2,3-dihydro-imidazo[4,5-c]quinolin-1-yl)-phenyl]-propionitrile]
- concentration at which dual PI3K/mTOR inhibition occurs [1]: approximately 500 nmol/L
- concentration at which mTOR inhibition predominates [2]: less than 100 nmol/L
- vaccine strains with GMT ratio as compared to placebo >1.2 ([3]; BEZ235 10 mg/day monotherapy for 6 weeks): 0/3

SMILES: CO[C@H]1C[C@@H]2CC[C@@H](C)[C@@](O)(O2)C(=O)C(=O)N2CCCC[C@H]2C(=O)O[C@H]([C@H](C)C[C@@H]2CC[C@@H](OCCO)[C@H](OC)C2)CC(=O)[C@H](C)/C=C(\C)[C@@H](O)[C@@H](OC)C(=O)[C@H](C)C[C@H](C)/C=C/C=C/C=C/1C [RAD001, (1R,9S,12S,15R,16E,18R,19R,21R,23S,24E,26E,28E,30S,32S,35R)-1,18-dihydroxy-12-{(1R)-2-[(1S,3R,4R)-4-(2-hydroxyethoxy)-3-methoxycyclohexyl]-1-methylethyl}-19,30-dimethoxy-15,17,21,23,29,35-hexamethyl-11,36-dioxa-4-aza-tricyclo[30.3.1.04,9]hexatriaconta-16,24,26,28-tetraene-2,3,10,14,20-pentaone]
- vaccine strains with GMT ratio as compared to placebo >1.2 ([3]; RAD001 0.1 mg/day monotherapy for 6 weeks): ⅓
- vaccine strains with GMT ratio as compared to placebo >1.2 ([3]; RAD001 0.5 mg/day monotherapy for 6 weeks): ⅓
